Read-outs that look alike come from different tables or passages of the source. Values belong to the compound of their own block, whether it stands above or below them.
How the values were obtained:
hA1AR [1] = target: T1, hA1AR (Homo sapiens, UniProt P30542); experiment: Radioligand binding at hA1AR; conditions: for AR subtype selectivity in binding (in words): A1, A2A and A3 ARs compared
T1 sequence (P30542 1-326): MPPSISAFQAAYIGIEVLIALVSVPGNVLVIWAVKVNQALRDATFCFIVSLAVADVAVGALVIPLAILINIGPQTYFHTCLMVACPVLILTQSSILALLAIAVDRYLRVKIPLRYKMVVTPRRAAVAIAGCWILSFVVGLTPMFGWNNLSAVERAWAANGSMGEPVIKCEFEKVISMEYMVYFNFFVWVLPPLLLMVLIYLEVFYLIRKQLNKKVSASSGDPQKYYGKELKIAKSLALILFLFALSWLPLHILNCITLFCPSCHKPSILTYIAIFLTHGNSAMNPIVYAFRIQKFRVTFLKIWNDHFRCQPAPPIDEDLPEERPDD

mice [2] = experiment: Maximal electroshock; type: in vivo; conditions: for MES model, number of animals protected from convulsions: qualitative
mice [3] = experiment: Subcutaneous metrazol; type: in vivo; conditions: for scMET model, number of animals protected from convulsions: qualitative
rat A1AR = conditions: read-out: Kd at rat A1AR; cited from earlier work
hA3AR = target: T2, hA3AR (Homo sapiens, UniProt P0DMS8); experiment: Radioligand binding at hA3AR; conditions: replacement of 2-Cl with 2-H
T2 sequence (P0DMS8 1-318): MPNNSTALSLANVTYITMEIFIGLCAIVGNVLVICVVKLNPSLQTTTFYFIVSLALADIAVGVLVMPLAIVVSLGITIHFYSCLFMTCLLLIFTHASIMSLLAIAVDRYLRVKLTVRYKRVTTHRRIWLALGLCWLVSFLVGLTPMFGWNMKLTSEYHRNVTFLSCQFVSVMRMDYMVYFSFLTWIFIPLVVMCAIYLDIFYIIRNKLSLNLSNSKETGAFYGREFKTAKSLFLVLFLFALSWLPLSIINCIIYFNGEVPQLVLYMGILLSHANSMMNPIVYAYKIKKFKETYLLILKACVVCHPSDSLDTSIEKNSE

hA1AR [4] = target: T1, hA1AR; type: cell-based; conditions: for Agonist efficacy at A1AR (in words): cyclic AMP assay, 10 μM
mice [5] = experiment: Corneal kindled mouse model of partial seizures; type: in vivo; conditions: i.p.
mice [6] = experiment: 6 Hz minimal clonic seizure test; type: in vivo
hA1AR [7] = target: T1, hA1AR; conditions: at 10 μM; relative to 44a (100%); ref Tosh et al.[20] or Gao et al. [21]; cited from earlier work
in vivo = conditions: male, CF No 1 albino, mouse, ip

Compound: NCCNC(=O)Cc1ccc(NC(=O)Cc2ccc(Nc3ncnc4c3ncn4[C@@H]3O[C@H](CO)[C@@H](O)[C@H]3O)cc2)cc1 [Compound 46, N^6-[4-[[[4-[[[(2-Aminoethyl)amino]carbonyl]methyl]anilino]carbonyl]methyl]phenyl]adenosine, reference compound]
- MES model, number of animals protected from convulsions (mice [2]; 2 mg/kg i.p.): 4 out of 8 (2mg/kg)
- scMET model, number of animals protected from convulsions (mice [3]; 1 mg/kg i.p.): 5 out of 8 (1 mg/kg)

Compound: C[C@H](CSc1nc2ccccc2s1)Nc1nc(Cl)nc2c1ncn2[C@@H]1O[C@H](CO)[C@@H](O)[C@H]1O [NNC-21-0136, N^6-[R-(2-benzothiazolyl)thio-2-propyl]-2-chloroadenosine]
- Kd (rat A1AR): 1.16 nM

Compound: O[C@@H]1[C@H](O)[C@@H]2C[C@@H]2[C@H]1n1cnc2c(NC(C3CC3)C3CC3)ncnc21 [Compound 37a]
- Increase of affinity at the A3AR relative to compound 10 (hA3AR): 28 fold

Compound: O[C@@H]1[C@H](O)[C@@H]2C[C@@H]2[C@H]1n1cnc2c(N[C@@H](c3ccccc3)C3CC3)nc(Cl)nc21 [Compound 20, (1R,2R,3S,4R,5S)-4-(2-Chloro-6-((R)-cyclopropylphenylmethylamino)-9H-purin-9-yl)bicyclo[3.1.0]hexane-2,3-diol]
- AR subtype selectivity in binding (in words) (hA1AR [1]): bound weakly at the three ARs
- Agonist efficacy at A1AR (in words) (hA1AR [4]): did not activate the A1AR

Compound: O[C@@H]1[C@H](O)[C@@H]2C[C@@H]2[C@H]1n1cnc2c(N[C@H](c3ccccc3)C3CC3)nc(Cl)nc21 [Compound 21, (1R,2R,3S,4R,5S)-4-(2-Chloro-6-((S)-cyclopropylphenylmethylamino)-9H-purin-9-yl)bicyclo[3.1.0]hexane-2,3-diol]
- AR subtype selectivity in binding (in words) (hA1AR [1]): bound weakly at the three ARs

Compound: OC[C@H]1O[C@@H](n2cnc3c(NC4CCCC4)nc(Cl)nc32)[C@H](O)[C@@H]1O [Compound 44b, 2-chloro-N^6-cyclopentyladenosine, reference compound]
- MES model, number of animals protected from convulsions (mice [2]; 1 mg/kg i.p.): 1 out of 4 at (1 mg/kg)
- scMET model, number of animals protected from convulsions (mice [3]; 1 mg/kg i.p.): 1 out of 4 (1 mg/kg)
- TD50 at 1 h (in vivo): 0.84 mg/kg

Compound: CCNC(=O)[C@H]1O[C@@H](n2cnc3c(N)ncnc32)[C@H](O)[C@@H]1O [Compound 45, 5′-N-ethylcarboxamidoadenosine, reference compound]
- % Inhibition, cyclic AMP, A1 (maximal efficacy) (hA1AR [4]; at 10 μM, relative to effect (100%) of full agonist 44a at 10 μM, CHO cells, n = 3–5): 100±15%
- Agonist efficacy at A1AR (in words) (hA1AR [4]): full agonist

Second part, led by results:

- inhibition at 10 µM (hA1AR [1]; read-out: % inhibition of radioligand binding, A1, at 10 μM, [3H]R-PIA, CHO cells): < 50%
Compound: O[C@@H]1[C@H](O)[C@@H]2C[C@@H]2[C@H]1n1cnc2c(NC(C3CCCC3)C3CCCC3)nc(Cl)nc21 [Compound 11, (1R,2R,3S,4R,5S)-4-(2-Chloro-6-(dicyclopentylmethylamino)-9H-purin-9-yl)bicyclo[3.1.0]hexane-2,3-diol]

- AR subtype selectivity in binding (in words) (hA1AR [1]): weak nonselective
Compound: COC(=O)c1cnn(-c2nc(NC(C3CC3)C3CC3)c3ncn([C@H]4[C@H](O)[C@H](O)[C@@H]5C[C@@H]54)c3n2)c1 [Compound 42]

- Agonist efficacy at A1AR (in words) (hA1AR [4]): full agonist
Compound: O[C@@H]1[C@H](O)[C@@H]2C[C@@H]2[C@H]1n1cnc2c(NC(C3CC3)C3CC3)nc(Cl)nc21 [Compound 10]
- Corneal kindled mouse model EC50 (±SE) (mice [5]; at 1 h post injection): 1.79 ± 0.71 mg/kg
- Response in corneal kindling model (in words) (mice [5]; mice): active
- MES model, number of animals protected from convulsions (mice [2]; 3 mg/kg i.p.): 1 out of 4 (3 mg/kg)
- Response in MES model (in words) (mice [2]; i.p.): inactive
- 6 Hz model, animals protected (mice [6]; 30 mg/kg i.p. (highest dose tested)): 7 out of 8
- 6 Hz model, mice protected (mice [6]; […] i.p.): 4 out of 8
- Response in 6 Hz model (in words) (mice [6]; mice, i.p.): active
- % Inhibition, cyclic AMP, A1 (maximal efficacy) (hA1AR [7]): 80–100%
- scMET model, number of animals protected from convulsions (mice [3]; 3 mg/kg i.p.): No protection (3 mg/kg)
- Response in scMET model (in words) (mice [3]; i.p.): inactive

- AR subtype selectivity in binding (in words) (hA1AR [1]): nonselective
Compound: NNc1nc(NC(C2CC2)C2CC2)c2ncn([C@H]3[C@H](O)[C@H](O)[C@@H]4C[C@@H]43)c2n1 [Compound 40]

- AR subtype selectivity in binding (in words) (hA1AR [1]): moderately selective for the A1AR
Compound: CC(C)[C@H](Nc1nc(Cl)nc2c1ncn2[C@H]1[C@H](O)[C@H](O)[C@@H]2C[C@@H]21)C1CC1 [Compound 15, (1R,2R,3S,4R,5S)-4-(2-Chloro-6-((S)-1-cyclopropyl-2-methyl-propylamino)-9H-purin-9-yl)bicyclo[3.1.0]hexane-2,3-diol]

- AR subtype selectivity in binding (in words) (hA1AR [1]): weak nonselective
Compound: O=C(O)c1cnn(-c2nc(NC(C3CC3)C3CC3)c3ncn([C@H]4[C@H](O)[C@H](O)[C@@H]5C[C@@H]54)c3n2)c1 [Compound 43]

- AR subtype selectivity in binding (in words) (hA1AR [1]): nonselective
Compound: O[C@@H]1[C@H](O)[C@@H]2C[C@@H]2[C@H]1n1cnc2c(NCC(C3CC3)C3CC3)nc(Cl)nc21 [Compound 7, (1R,2R,3S,4R,5S)-4-(2-Chloro-6-(2,2-dicyclopropylethylamino)-9H-purin-9-yl)bicyclo[3.1.0]hexane-2,3-diol]

- AR subtype selectivity in binding (in words) (hA1AR [1]): moderately selective for the A1AR
Compound: CC(C)[C@@H](Nc1nc(Cl)nc2c1ncn2[C@H]1[C@H](O)[C@H](O)[C@@H]2C[C@@H]21)C1CC1 [Compound 14, (1R,2R,3S,4R,5S)-4-(2-Chloro-6-((R)-1-cyclopropyl-2-methyl-propylamino)-9H-purin-9-yl)bicyclo[3.1.0]hexane-2,3-diol]

From article PMC3463139 (Journal of medicinal chemistry, 2012)
